Measurements: US11767298B2, “Substituted benzimidazoles as inhibitors of transforming growth factor-β kinase” (Duke University, priority 2016, dated 2023)

Assays:
[1] = target: GFP-PfPK9 (Plasmodium falciparum, UniProt Q8IEG4); test: ATP-competitive binding assay (ATP-sepharose pull-down, FLECS); settings: GFP-PfPK9; Kd calculated from EC50 of ATP pull-down dose-response; read-out: Kd, app
Method: Primary small-molecule screen. A small-molecule screen was performed similar to a previously reported fluorescence linked enzyme chemoproteomic strategy (FLECS). Briefly, HEK293-GFP-PfPK9 cells were grown in 182-cm^2 tissue culture flasks (Genesee Scientific) and harvested at ˜80% cell confluency. Before assays the culture medium was aspirated, cells were rinsed with ice cold PBS and then they were removed with a cell scraper. Cells were pelleted by centrifugation (2,000 rpm, 4° C., 2 min) and immediately lysed for assays. The pellet was suspended in buffer A (25 mM HEPES, pH 7.4, 150 mM NaCl, 60 mM MgCl2, 1 mM DTT) with 1 μM microcystin, 0.1% Triton X-100 plus a Roche Complete protease inhibitor tablet and then placed on ice for 30 min to facilitate lysis. The supernatant was collected after centrifugation (4,300 rpm, 4° C., 5 min) and used in subsequent screening and titrations experiments. For screening, the supernatant was added to ATP-sepharose beads (1:1) and incubated with agitation at 4° C. for at least 1 hr to allow binding. Following this incubation, the mixture was centrifuged, the ATP resin was washed with 9 column volumes of buffer A with 1 M NaCl and then 9 column volumes of buffer A. The ATP-sepharose medium was reconstituted as a 1:1 slurry with buffer A and then added to 96-well filter plates (50 μL/well) (Corning #3505) using a multichannel pipette (Rainin). The filter plate was on top of black 96-well catch plates (Corning #3915). An ATP dilution series (1-200 mM) was added to each plate as a positive control and DMSO was the negative control. Compounds and controls were all added to 50 μL per well in buffer A. For screening, compounds were tested in singlicate at 500 μM. The final DMSO concentration in every well was 5%. The fluorescence intensity in each well was measured on an EnVision system. Data analyses of screens were carried out in EXCEL (Microsoft, Corp.) and actives were identified as 2×background signal.
All screening positives that were verified with Western blot analysis were purchased from Enamine or Vitas-M laboratory. The purity of compounds 1-5 (shown below) was verified by high-resolution MS (Agilent). Compounds were tested in 8-point dose-response (0-500 μM) experiments in duplicate, essential as described above. The fluorescence intensity in each well was measured using an EnVision system. Dose-response analysis was performed with GraphPad Prism to acquire EC50 values. Determined EC50 values were used to calculate the observed PfPK9 Kd and reported values are the average of 2-3 independent experiments.
Stable cell line generation. The P. falciparum PK9 gene (PlasmoDB accession #PF3D7_1315100) was cloned into the pEGFP-C1 mammalian expression vector (Clontech) in frame with a […] GFP tag. For screening, HEK293 cells were transfected with the resulting PfPK9-pEGFP-C1 vector to generate HEK293-GFP-PfPK9 expressing cells using X-tremeGENE HP transfection reagent (Roche) per the manufacturer instructions. Briefly, the culture medium was replaced at 48 hours post-transfection with medium supplemented with 1 mg/mL G418 sulfate (Life Technologies) to select for stably transfected cells. Following stable cell selection, fluorescence activated cell sorting (FACS) was used to enrich for GFP-PfPK9 expressing cells. Subsequently, FACS sorted HEK293-GFP-PfPK9 cells were cultured with medium supplemented with 0.5 mg/mL G418 sulfate for all following experiments. Protein expression was verified by Western blot analysis probing for anti-GFP and by fluorescence intensity using an EnVision (PerkinElmer) system.
All 14 positive molecules were also tested for their binding affinity to PfPK9 using an optimized ATP-competitive binding assay. EC50 values ranging from low μM to low mM were observed and these EC50 values were used to derive dissociation constants as described previously. […]

[2] = tested on: HepG2 cells; test: HepG2 cell viability / cytotoxicity; type: cell-based, human; settings: HepG2; concentrations up to 200 μM
Method: (§1) Cell-based anti-Plasmodium assays. For liver stage assays, 15,000 HepG2 or 8,000 Huh7 cells/well were added to 384-well microtiter plates using a multichannel pipette (Rainin). After 2 hours at 37° C., compounds (0-100 μM) were added to cells in duplicate or triplicate in a final concentration of 1% DMSO. DMSO was used as the negative control. Following compound incubation at 37° C. for ˜1 hr, harvested luciferase-expressing P. berghei ANKA sporozoites were added to the plates at a density of 3,000 sporozoites/well. P. berghei ANKA sporozoites were obtained from harvesting the salivary glands of infected A. stephensi mosquitoes. The plates were spun for 10 min at 1,000 rpm, and then incubated at 37° C. for ˜45 hrs. […] After ˜45 hours at 37° C., liver cell viability was assessed using CellTiter-Fluor (Promega) and then parasite load was determined using Bright-Glo (Promega). The relative fluorescence and luminescence signal intensity of each well was evaluated with an EnVision System. The luminescence signal in the presence of compounds was normalized to the negative control (DMSO). Dose-response analysis was performed with GraphPad Prism to yield the reported EC50 values.
(§2) Anti-Plasmodium activity was evaluated in the parasite's liver stage using a previously reported high-throughput assay. In this assay, luciferase-expressing P. berghei (murine) parasites are used to infect human hepatoma cells (HepG2) and parasite load is assessed with a luminometer subsequent to evaluating HepG2 viability using a commercially available quantification kit that measures intracellular protease activity.
(§3) Specifically, their ability to inhibit P. berghei infection in two human hepatoma cell lines (HepG2 and Huh7) as well as cytotoxicity against HepG2 and Huh7 cells was determined as described above. Liver cell cytotoxicity was evaluated with two different commercially available assays, one that tests for intracellular protease activity with a fluorescence reporter and another that relies on the luminescent detection of total ATP.

[3] = tested on: Huh7 cells; test: Huh7 cell viability / cytotoxicity; type: cell-based, human; settings: concentrations up to 200 μM
Method: as §1, with “After 2 hours at 37° C., compounds (0-100 μM) were added to cells in duplicate or triplicate in a final concentration of 1% DMSO.” left out
as §3

[4] = target: CLK2 (Homo sapiens, UniProt P49760); test: Kinase profiling (Dundee), CLK2; type: biochemical
Chain of CLK2 (P49760 whole entry): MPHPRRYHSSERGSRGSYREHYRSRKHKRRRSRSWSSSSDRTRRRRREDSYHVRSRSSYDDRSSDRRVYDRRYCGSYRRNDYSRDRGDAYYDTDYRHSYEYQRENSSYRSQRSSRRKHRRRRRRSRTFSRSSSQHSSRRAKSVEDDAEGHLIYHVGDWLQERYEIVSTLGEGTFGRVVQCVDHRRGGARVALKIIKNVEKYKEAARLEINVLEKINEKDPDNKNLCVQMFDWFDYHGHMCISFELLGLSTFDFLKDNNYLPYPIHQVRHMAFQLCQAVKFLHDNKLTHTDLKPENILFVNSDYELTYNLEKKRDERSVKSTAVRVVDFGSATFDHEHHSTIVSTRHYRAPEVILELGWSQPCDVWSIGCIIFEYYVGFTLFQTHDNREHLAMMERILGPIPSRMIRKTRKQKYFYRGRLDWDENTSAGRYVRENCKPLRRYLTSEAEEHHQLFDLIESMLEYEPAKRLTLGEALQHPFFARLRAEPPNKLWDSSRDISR
Method: (§4) Kinase selectivity profiling. The selectivity profile of HS-206 to inhibit mammalian kinases was tested against a panel of 140 kinases at a single concentration of 10 μM. Tests were performed using a radiolabeld (^33P-ATP) filter-binding assay at the International Centre for Kinase Profiling at the University of Dundee, UK (http://www.kinase-screen.mrc.ac.uk/).
(§5) This panel contains members of all major kinase families, including tyrosine kinases (TK), tyrosine kinase-like (TKL), sterile serine/threonine (STE), and CDK/MAPK/GSK/CLK (CMGC). […] For these kinases, IC50 values were determined (Table 1).

[5] = target: GCK (Homo sapiens, UniProt Q12851); test: Kinase profiling (Dundee), GCK; type: biochemical
Chain of GCK (Q12851 whole entry): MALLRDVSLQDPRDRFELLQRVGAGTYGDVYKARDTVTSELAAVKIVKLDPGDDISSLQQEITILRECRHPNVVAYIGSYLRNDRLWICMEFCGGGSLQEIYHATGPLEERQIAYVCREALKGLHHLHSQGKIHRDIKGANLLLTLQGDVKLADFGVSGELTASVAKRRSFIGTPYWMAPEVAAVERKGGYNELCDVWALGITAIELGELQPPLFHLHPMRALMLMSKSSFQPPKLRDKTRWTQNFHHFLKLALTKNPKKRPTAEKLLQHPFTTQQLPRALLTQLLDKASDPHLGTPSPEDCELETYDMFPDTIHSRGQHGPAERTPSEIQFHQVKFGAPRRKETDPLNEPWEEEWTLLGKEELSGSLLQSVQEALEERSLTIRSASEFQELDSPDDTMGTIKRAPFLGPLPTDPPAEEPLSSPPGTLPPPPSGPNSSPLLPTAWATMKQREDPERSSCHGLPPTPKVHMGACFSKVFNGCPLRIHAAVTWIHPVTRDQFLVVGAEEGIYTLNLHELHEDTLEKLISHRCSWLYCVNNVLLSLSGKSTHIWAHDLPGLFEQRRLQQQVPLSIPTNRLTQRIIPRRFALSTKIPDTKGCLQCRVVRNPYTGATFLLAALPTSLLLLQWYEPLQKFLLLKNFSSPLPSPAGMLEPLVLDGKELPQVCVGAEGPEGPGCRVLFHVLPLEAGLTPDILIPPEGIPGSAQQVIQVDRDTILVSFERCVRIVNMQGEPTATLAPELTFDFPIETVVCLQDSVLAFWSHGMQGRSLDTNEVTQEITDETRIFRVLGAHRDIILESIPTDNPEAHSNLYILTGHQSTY
Method: as §4, §5

[6] = target: MINK1 (Homo sapiens, UniProt Q8N4C8); test: Kinase profiling (Dundee), MINK1; type: biochemical
Chain of MINK1 (Q8N4C8 whole entry): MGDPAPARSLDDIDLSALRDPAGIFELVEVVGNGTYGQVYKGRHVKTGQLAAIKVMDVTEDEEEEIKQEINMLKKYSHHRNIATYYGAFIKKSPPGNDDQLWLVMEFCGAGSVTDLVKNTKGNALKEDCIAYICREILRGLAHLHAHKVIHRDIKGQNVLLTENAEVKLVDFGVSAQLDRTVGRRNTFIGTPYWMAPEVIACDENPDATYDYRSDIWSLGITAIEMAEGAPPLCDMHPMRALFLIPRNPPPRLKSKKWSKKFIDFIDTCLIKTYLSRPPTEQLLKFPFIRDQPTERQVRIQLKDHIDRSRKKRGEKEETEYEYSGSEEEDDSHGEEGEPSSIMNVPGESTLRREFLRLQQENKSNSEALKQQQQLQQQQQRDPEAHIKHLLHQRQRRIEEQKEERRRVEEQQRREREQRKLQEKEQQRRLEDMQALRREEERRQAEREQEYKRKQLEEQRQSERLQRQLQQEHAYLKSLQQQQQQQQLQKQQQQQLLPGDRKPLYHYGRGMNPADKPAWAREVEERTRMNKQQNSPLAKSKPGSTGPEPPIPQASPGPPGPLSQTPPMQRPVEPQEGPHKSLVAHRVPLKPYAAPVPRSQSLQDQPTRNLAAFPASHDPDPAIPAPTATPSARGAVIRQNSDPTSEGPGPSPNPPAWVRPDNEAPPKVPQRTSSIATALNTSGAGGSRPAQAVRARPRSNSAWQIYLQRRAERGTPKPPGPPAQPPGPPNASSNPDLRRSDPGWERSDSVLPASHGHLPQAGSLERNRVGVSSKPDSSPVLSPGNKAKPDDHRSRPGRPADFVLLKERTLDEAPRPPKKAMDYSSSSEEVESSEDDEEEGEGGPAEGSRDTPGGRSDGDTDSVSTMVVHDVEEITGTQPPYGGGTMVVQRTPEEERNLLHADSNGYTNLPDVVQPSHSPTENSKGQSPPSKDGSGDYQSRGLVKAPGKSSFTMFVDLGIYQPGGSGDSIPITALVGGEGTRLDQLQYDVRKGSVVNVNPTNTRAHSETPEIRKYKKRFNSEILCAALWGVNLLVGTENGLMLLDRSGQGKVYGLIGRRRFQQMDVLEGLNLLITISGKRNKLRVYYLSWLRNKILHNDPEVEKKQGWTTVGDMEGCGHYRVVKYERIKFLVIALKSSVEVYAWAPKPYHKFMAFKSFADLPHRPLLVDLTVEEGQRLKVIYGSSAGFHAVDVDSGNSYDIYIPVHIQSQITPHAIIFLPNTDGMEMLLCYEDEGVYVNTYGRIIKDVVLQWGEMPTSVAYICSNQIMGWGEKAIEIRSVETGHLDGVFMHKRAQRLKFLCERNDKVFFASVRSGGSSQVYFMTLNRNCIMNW
Method: as §4, §5

[7] = target: T1, TAK1 (Homo sapiens, UniProt O43318); test: Western Blot analysis of PROTAC-treated MDA-MB-231 cells, TAK1; type: cell-based
T1 construct: endogenous in cells; host or cells: MDA-MB-231
T1 sequence (O43318 whole entry): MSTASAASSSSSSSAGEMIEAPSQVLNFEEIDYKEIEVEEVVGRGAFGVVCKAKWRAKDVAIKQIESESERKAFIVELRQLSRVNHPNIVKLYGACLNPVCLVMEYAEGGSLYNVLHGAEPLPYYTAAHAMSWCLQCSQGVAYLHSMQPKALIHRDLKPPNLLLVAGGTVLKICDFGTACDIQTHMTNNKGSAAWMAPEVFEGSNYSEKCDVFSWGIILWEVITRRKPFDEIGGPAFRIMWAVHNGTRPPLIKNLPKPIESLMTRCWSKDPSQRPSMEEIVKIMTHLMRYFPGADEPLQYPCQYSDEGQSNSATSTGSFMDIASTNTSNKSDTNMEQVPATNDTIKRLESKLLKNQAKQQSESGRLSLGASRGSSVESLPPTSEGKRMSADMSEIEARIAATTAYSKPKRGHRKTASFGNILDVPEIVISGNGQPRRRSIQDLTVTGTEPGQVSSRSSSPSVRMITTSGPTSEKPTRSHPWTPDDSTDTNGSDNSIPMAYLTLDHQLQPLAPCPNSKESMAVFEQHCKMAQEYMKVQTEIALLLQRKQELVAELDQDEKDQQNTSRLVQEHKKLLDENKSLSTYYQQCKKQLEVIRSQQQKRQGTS
From the text: TAK1 is an Hsp90 client protein, which is why its expression is likely affected in these samples. […] This effect has previously been described as prozone effect. At high PROTAC concentrations, both E3 ligase and protein are saturated individually with PROTAC, so that the complex of ligase and protein can no longer be formed.

[8] = tested on: P. berghei; test: Liver stage parasite load, luciferase-expressing P. berghei in HepG2 cells; type: cell-based, Plasmodium berghei ANKA; settings: HepG2 host cells
Method: as §1, §2, §3

[9] = tested on: P. berghei; test: Liver stage parasite load, luciferase-expressing P. berghei in Huh7 cells; type: cell-based, Plasmodium berghei ANKA; settings: Huh7 host cells, read-out: IC50 Liver state (Huh7)
Method: as §1, §3

[10] = tested on: PfPK9; test: UBC13 phosphorylation by PfPK9 (ADP luminescence assay); type: biochemical, P. falciparum; settings: compared to DMSO
Method: Recombinant protein expression and enzyme activity assay. Recombinant GST-tagged PfPK9 was expressed in E. coli BL21(DE3) cells, purified to homogeneity, and the GST tag was cleaved with PreScission Protease (GE Healthcare). To test for inhibition of PfPK9, the ADP detection assay ADP-Glo (Promega) was used to determine ATPase activity of PfPK9 in the presence of the PfUBC13 protein substrate when treated with compounds 1 and 5. Approximately 500 nM PfPK9 was incubated with either compound (10 μM or 500 μM) for 5 min at RT in buffer containing 40 mM Tris, pH 7.5, 20 mM MgCl2, 2 mM MnCl2 and 1 mM DTT prior to assay initiation with 100 μM ATP. The assay was performed in white low-volume 384-well plates (Corning #3824) in triplicate. The assay plate was sealed and subsequently incubated for 8 hrs at 37° C. before ADP detection per manufacturer instructions. The final assay volume was 5 μL with a final concentration of 1% DMSO. A negative control was performed in 1% DMSO and heat inactivated PfPK9 (80° C. for 5 min) was used as a positive control. The luminescence intensity in each well was measured on an EnVision system. Data were normalized to the average luminescence signal of the negative control to provide relative ADP concentrations and graphs were constructed in GraphPad Prism. Data analyses were conducted from three independent experiments. […]

[11] = tested on: K63-linked ubiquitination; test: Western blot for K63-linked ubiquitination in Plasmodium blood stage; type: cell-based, P. falciparum; settings: 30 μM, 24 hr, blood stage parasites
Method: P. falciparum asexual blood-stage culture. P. falciparum 3D7 isolate was maintained under standard conditions in complete culturing medium [10.44 g/L RPMI 1640 (Invitrogen), 5.94 g/L HEPES (Invitrogen), 50 mg/L hypoxanthine (Sigma), 2.02 g/L sodium bicarbonate (Sigma), 5 g/L albuMAX II (Invitrogen), 25 mg/L gentamicin (Sigma), pH 7.2]. Parasite cultures were supplied with human red blood cells (Gulf Coast Regional Blood Center) at 1% hematocrit. To obtain synchronous cultures, Plasmodium parasites (at least 50% parasites were at the early-ring stage) were pelleted at 300×g for 7 min using a low brake setting and treated with 25 volume 5% D-sorbitol (Sigma) at 37° C. for 10 min. Treated parasites were then harvested and washed with 25 volume of complete culturing medium using the aforementioned centrifugation protocol, and diluted with the complete medium to 1% hematocrit to maintain the parasite culture at 37° C. and 5% CO2.
Protein extraction and Western blot for K63-linked ubiquitination in Plasmodium blood stage. […] Total protein lysates were heated in SDS loading buffer for 5 min at 80° C., analyzed on 4-20% Tris-Glycine polyacrylamide gels (Novex, Life Technologies) and subsequently transferred to nitrocellulose membranes. […]

Chain of GFP-PfPK9 (Q8IEG4 entry or part of it): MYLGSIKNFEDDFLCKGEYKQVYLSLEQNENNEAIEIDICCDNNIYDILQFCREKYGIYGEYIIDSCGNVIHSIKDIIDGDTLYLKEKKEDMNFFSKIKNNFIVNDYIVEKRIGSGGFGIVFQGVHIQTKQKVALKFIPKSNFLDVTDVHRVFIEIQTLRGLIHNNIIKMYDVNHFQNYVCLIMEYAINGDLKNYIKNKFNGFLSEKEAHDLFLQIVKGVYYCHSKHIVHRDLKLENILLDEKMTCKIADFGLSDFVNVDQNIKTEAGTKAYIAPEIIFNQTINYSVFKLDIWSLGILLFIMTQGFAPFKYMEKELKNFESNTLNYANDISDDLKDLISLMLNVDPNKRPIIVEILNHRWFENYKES

CCCn1/c(=N/C(=O)c2cccc(C(N)=O)c2)[nH]c2ccccc21 [HS-206 (1), (E)-N-(1-Propyl-1,3-dihydro-2H-benzo[d]imidazol-2-ylidene)isophthalamide]
Kd [1]: ~200 nM | effect on liver cell viability [2]: did not affect liver cell viability even at 200 μM | effect on liver cell viability [3]: did not affect liver cell viability even at 200 μM | IC50 [4]: 430 ± 40 nM | IC50 [5]: 430 ± 40 nM | IC50 [6]: 1900 ± 1000 nM

CCCn1/c(=N/C(=O)c2cccc(C(N)=O)c2)[nH]c2cc(/C=C/C(=O)NCCCOCCOCCOCCOCCOCCCNc3cccc4c3C(=O)N(C3CCC(=O)NC3=O)C4=O)ccc21 (stereo not shown) [HS-237]
protein levels (TAK1) ([7]; 0.1 μM): reduction in protein levels | protein levels (TAK1) ([7]; higher concentrations): no effect

Cc1nc(-c2cccs2)c(CCC(=O)Nc2cccc3cccnc23)s1 [compound 5]
IC50 ([8]; Plasmodium berghei, HepG2, parasite load): 10 µM | IC50 ([8]; parasite load): 9.7 µM | IC50 ([9]; Plasmodium berghei, Huh-7, parasite load): 9 µM | IC50 ([9]; parasite load): 8.5 µM | effect on liver cell viability [2]: neither compound 4 or 5 had any significant effects on cell viability | effect on liver cell viability [3]: neither compound 4 or 5 had any significant effects on cell viability | UBC13 phosphorylation by PfPK9 [10]: significantly decreased | K63-linked ubiquitination [11]: decreased K63-linked ubiquitination in blood stage parasites albeit to a lesser extent than compound 1
